In patent US12419936B2, “Collagen peptide-based medicament compositions and devices and methods of production and use thereof” (SUSTAIN HOLDINGS, LLC, priority 2019, dated 2025):

Experiments:
[1] = cited from earlier work; for melting temperature of a triple helix: Sakakibara et al. 1973
[2] = system: dorsal root ganglia (DRG) neurons; experiment: Neurite outgrowth in dorsal root ganglion neurons on cut collagen plates treated with CMP; type: cell-based, rat; settings: 100 μM CMP on cut collagen; 48 hours
Description: (§1) Plates were then rinsed with culture medium, and DRG neuronal cells were plated uniformly on plates having one of three surface coating conditions: (1) intact collagen; (2) cut collagen; and (3) cut collagen+CMP. Plates were then incubated at 37° C. for 48 hours, and then examined for morphology and neurite outgrowth by inverted brightfield microscopy.

ARPE19 cells = experiment: Adherence of RPE cells to MMP-1-digested (cut) collagen plates treated with CMP; type: cell-based, human; settings: 100 μM CMP on cut collagen; 19 hours
Description: as §1, with “ARPE-19” for “DRG neuronal”, “19” for “48”, “cell adherence” for “morphology and neurite outgrowth”, “phase contrast” for “inverted brightfield”

[3] = system: corneal epithelium in wounded mouse eyes; experiment: In vivo healing of mouse corneal epithelium, wound size by fluorescein staining; settings: 100 ng/ml EGF, positive control; 16 hours post-treatment
Description: To examine the possible therapeutic effects of CMPs and CMP-TC conjugates of the invention, studies were designed to test certain CMPs and CMP-TC conjugates in an in vivo setting—the healing of the corneal epithelium in wounded mouse eyes. Female mice (8-week-old C57BL/6; seven mice per sample tested) were anesthetized, and corneas of the mouse eyes were wounded with a 1.5 mm superficial epithelial wound of sufficient depth to expose the anterior stroma thereby damaging and exposing the collagen matrix. […] Following wounding, corneas were treated with 25 nM (about 3 mg/kg) CMPs or CMP-TC conjugates, in aqueous PBS. Negative control mice were treated with vehicle only (PBS), and positive control mice were treated with 100 ng/ml epidermal growth factor (EGF). Wound size at various time points over 48 hours was examined by fluorescein staining (see Carlson et al., id.), and documented via fluorescent photomicrography, and quantified using Image J software (see Rush, J. S. et al., Investig. Ophthalmol. Visual Sci. 57 (14): 5864-5871 (2016); Rush, J. S. et al., Investig. Ophthalmol. Visual Sci. 55 (8): 4691-4699 (2014)).

Row | Substance | melting temperature of a triple helix [1] [°C] | adherence of RPE cells, quantitative, normalized to cut collagen (ARPE19 cells) | other results
1 | (ProHypGly)10 | 58 |  | rate at which chains fold into a triple helix ([1]; relative to (ProProGly)10, Chopra and Ananthanarayanan 1982): substantially greater
2 | Pro-Flp-Gly-Pro-Flp-Gly-Pro-Cys-Gly-Pro-Flp-Gly-Pro-Flp-Gly-Pro-Flp-Gly-Pro-Flp-Gly [CMP D] |  | significantly increased adhesion | length of the longest neurite normalized to cut collagen [2]: even exceeded that observed with intact collagen
3 | Flp-Hyp-Gly-Flp-Hyp-Gly-Flp-Hyp-Gly-Flp-Hyp-Gly-Flp-Hyp-Gly-Flp-Hyp-Gly-Flp-Hyp-Gly [CMP B] |  | significantly increased adhesion | adherence of RPE cells in photomicrographs vs. cut collagen plates (ARPE19 cells): increased adherence
4 | epidermal growth factor [EGF, positive control in the corneal wound model, 100 ng/ml] |  |  | wound healing in mouse cornea and corneal stroma (diameter and intensity of fluorescein fluorescence) [3]: lower level of healing
5 | (ProProGly)10 | 24 |  | 
